Legend:
healthy adults = assay: Double-blind, randomized, 3-way crossover, placebo- and active-control study of cardiovascular (QT/QTc) effects; type: in vivo, human; details: for Mean change from pretreatment baseline in QTc interval (mean ΔQTc), Bazett correction / Mean change from pretreatment baseline in QTc interval (mean ΔQTc), Individual Correction Method / Mean change from pretreatment baseline in QTc interval (mean ΔQTc), Fridericia correction: moxifloxacin 400 mg single oral dose; for Mean change from pretreatment baseline in QTc interval (mean ΔQTc), Fridericia correction: time-matched baseline Day 0; for Maximum decrease in QTc-F compared to baseline: individual subjects; for Reduction of the mean QTc-F interval compared to pretreatment baseline (Day 0): stated as reduction; for Maximum decrease in QTc-F compared to baseline / Number of subjects with QTc shortening between 30 and 60 ms compared to baseline: QTc-F
Method: (§1) The study of the cardiovascular effects of a carbamate compound of the present invention, shown as Formula 7 above, and hereafter referred to as “the test compound” was a single-center, double-blind, randomized, 3-way crossover, placebo- and active-control study. The test compound was studied at a dose of 1,500 mg/day (750 mg twice daily) both after acute dosing ([…], Day 1) and at steady state (Day 7). The study also evaluated the delayed post-treatment effects on Days 8-10. Moxifloxacin (400 mg, single oral dose) was used as an active control for the evaluation of QT/QTc on both Days 1 and 7.
(§2) Of the 38 subjects enrolled, 35 completed all 3 treatment conditions (placebo, moxifloxacin, test compound). Two subjects withdrew electively after receiving the first 3 days of the last treatment period (1 in moxifloxacin and 1 in test compound), and the last one withdrew because of an adverse event (respiratory tract infection) after the first treatment period (placebo), and before receiving any other treatment. Thus, all 38 subjects completed placebo treatment, 36 subjects completed the test compound treatment (and an additional subject provided data for Days 0 and 1 on test compound), and 36 completed moxifloxacin treatment (and 1 provided data for Days 0 and 1 on moxifloxacin). All 38 subjects were included in the safety evaluation; all collected drug level measurements and all available ECG recordings were included in data analyses.
The study population consisted of 38 healthy adults (20 men and 18 women), age 18 to 50 years, with normal 12-lead ECG (normal sinus rhythm, QTc and QRS intervals) and no history of cardiovascular disease. Of the 38 subjects enrolled, 35 completed all 3 treatment conditions (placebo, moxifloxacin, test compound). Two subjects withdrew electively after receiving the first 3 days of the last treatment period (1 in moxifloxacin and 1 in test compound), and the last one withdrew because of an adverse event (respiratory tract infection) after the first treatment period (placebo), and before receiving any.
as §2, with “The study population consisted of 38 healthy adults (20 men and 18 women), age 18 to 50 years, with normal 12-lead ECG (normal sinus rhythm, QTc and QRS intervals) and no history of cardiovascular disease. Of” for “Of”, “completed” for “completed the”
During each treatment period, 11 12-lead ECGs were collected at the same time of the day on Day 0 (baseline), Day 1 (initial treatment), and Day 7 (steady-state treatment); 4 additional ECGs were collected at exactly 24, 36, 48, and 72 hours after the last dose of Day 7 (post-treatment).
All ECG recordings of the same subject were read by the same blinded cardiologist. The QT intervals, from the onset of the QRS complex to the end of the T wave, were determined by the method of overlapping medians. The key QTc variables used in the assessment are listed below. The change from baseline (ΔQTc) was calculated using time-matched values. The following parameters were calculated for each subject and treatment by averaging over all time points during the 12-hour dosing interval. […]

[1] = Pharmacokinetics / drug level measurements in the crossover QT study; type: in vivo, human
Method: as §1
as §2, with “All 38 subjects were included in the safety evaluation; all collected drug level measurements and all available ECG recordings were included in data analyses.” left out

[2] = Day 1 (acute dosing), test compound 250 mg
[3] = Day 1 (acute dosing), test compound 250 mg, averaged over 12-hour dosing interval
[4] = Day 7 (steady state), test compound 1,500 mg/day (750 mg twice daily)

Compound | Gender effect with regard to QTc reduction (healthy adults; 20 men and 18 women) | Mean change from pretreatment baseline in QTc interval (mean ΔQTc), Bazett correction (healthy adults; [2]) | Mean change from pretreatment baseline in QTc interval (mean ΔQTc), Individual Correction Method (healthy adults; [2]) | Mean change from pretreatment baseline in QTc interval (mean ΔQTc), Fridericia correction (healthy adults; [3]) | Mean change from pretreatment baseline in QTc interval (mean ΔQTc), Bazett correction (healthy adults; [4]) | Mean change from pretreatment baseline in QTc interval (mean ΔQTc), Individual Correction Method (healthy adults; [4]) | Mean change from pretreatment baseline in QTc interval (mean ΔQTc), Fridericia correction (healthy adults; [4]) | Delayed post-treatment effect on QT/QTc intervals (healthy adults; Days 8-10) | Maximum decrease in QTc-F compared to baseline (healthy adults) [ms] | Reduction of the mean QTc-F interval compared to pretreatment baseline (Day 0) (healthy adults; after initial treatment (Day 1)) [ms] | Reduction of the mean QTc-F interval compared to pretreatment baseline (Day 0) (healthy adults; at steady state (Day 7)) [ms] | Lowest QTc-F value (healthy adults; observed in 3 subjects (2 test compound, 1 placebo)) [ms] | Time after the last dose of Day 7 by which the QTc shortening effect disappeared (healthy adults; post-treatment ECGs at 24, 36, 48, 72 hours) [h] | Number of subjects with QTc-F slightly below 350 ms (healthy adults; steady state (Day 7)) [subjects] | Number of subjects with QTc shortening between 30 and 60 ms compared to baseline (healthy adults; steady state (Day 7)) [subjects] | Pharmacokinetics (linearity / dose proportionality) ([1]; after single- and multiple-dose administration) | Systemic exposure between the 2 single doses ([1]; 400 mg doses on Day 1 and Day 7)
NC(=O)OC[C@@H](O)c1ccccc1Cl [test compound] | no gender effect | -3.2 ms | -3.7 ms | -3.1 ms | -7.4 ms | -12.1 ms | -11.2 ms | no apparent delayed post-treatment effect | 47 | 3.1 | 11.2 | 348 | ≤ 24 | 2 | 14 | linear and proportional | 
COc1c(N2C[C@@H]3CCCN[C@@H]3C2)c(F)cc2c(=O)c(C(=O)O)cn(C3CC3)c12 [Moxifloxacin, reference compound] |  | +6.5 ms | +6.6 ms | +6.7 ms | +3.2 ms | +0.8 ms | +1.6 ms |  | 45 |  |  |  |  |  | 5 |  | consistent
